Data taken from the CheMixHub ionic liquid set.

Assay: xn = mol fraction of the nth substance listed

CCCCC(=O)[O-].CC[NH+](CC)CCO + CCCC[n+]1ccn(C)c1.COP(=O)([O-])OC
101 kPa
Details | viscosity [mPa·s]
278.15 K, x1 = 0.6984 | 216.8
283.15 K, x1 = 0.4973 | 226.8
288.15 K, x1 = 0.1018 | 874
293.15 K, x1 = 0.1018 | 594
298.15 K, x1 = 0.1952 | 271.2
298.15 K, x1 = 0.5989 | 76
298.15 K, x1 = 0.7978 | 58.54
303.15 K, x1 = 0.1952 | 199.9
303.15 K, x1 = 0.3029 | 132
303.15 K, x1 = 1 | 37.12
308.15 K, x1 = 0.1952 | 150.4
308.15 K, x1 = 0.5989 | 46.85
313.15 K, x1 = 0.3029 | 79.5
313.15 K, x1 = 0.4003 | 58.57
313.15 K, x1 = 0.5989 | 37.62
313.15 K, x1 = 0.8868 | 26.19
318.15 K, x1 = 0.1952 | 90.1
318.15 K, x1 = 0.4003 | 47.13
318.15 K, x1 = 0.5989 | 30.62
318.15 K, x1 = 0.6984 | 26.67
323.15 K, x1 = 0.7978 | 19.5
328.15 K, x1 = 0.4973 | 25.35
328.15 K, x1 = 0.5989 | 21.04
328.15 K, x1 = 0.6984 | 18.34
333.15 K, x1 = 0.1018 | 62.36
333.15 K, x1 = 0.3029 | 34.47
333.15 K, x1 = 0.4003 | 26.54
333.15 K, x1 = 0.8868 | 12.34
333.15 K, x1 = 1 | 10.94
338.15 K, x1 = 0.1952 | 38.69
338.15 K, x1 = 0.4973 | 18.07
338.15 K, x1 = 0.5989 | 15.08
343.15 K, x1 = 0.4003 | 19.11
343.15 K, x1 = 0.4973 | 15.48
343.15 K, x1 = 0.6984 | 11.27
348.15 K, x1 = 0.5989 | 11.19
353.15 K, x1 = 0.5989 | 9.76
358.15 K, x1 = 0.8868 | 5.91
358.15 K, x1 = 1 | 5.15
363.15 K, x1 = 0.1018 | 21.41
363.15 K, x1 = 0.6984 | 6.56
373.15 K, x1 = 0.4003 | 8.6
373.15 K, x1 = 1 | 3.53

CCn1cc[n+](CC)c1.O=S(=O)([N-]S(=O)(=O)C(F)(F)F)C(F)(F)F + O
100 kPa, x2 = 0.2772
Details | viscosity [mPa·s]
318.15 K | 11.04
358.15 K | 4.96

CCCCCCCCCCCCCCCC[P+](CCCC)(CCCC)CCCC.[Br-] + O
300 K, 101 kPa
Details | electrical conductivity [S/m]
x2 = 0.201 | 0.00035
x2 = 0.302 | 0.00035
x2 = 0.402 | 0.00035
x2 = 0.502 | 0.00035

NCC(O)CN + CC[n+]1ccn(C)c1.[Cl-]
101 kPa, x2 = 0.667
Details | viscosity [mPa·s]
298.15 K | 280
303.15 K | 200.3
313.15 K | 108.2
323.15 K | 58.3
333.15 K | 38.3

CCCCn1cc[n+](C)c1.[Cl][Fe-]([Cl])([Cl])[Cl] + CCOC(C)=O
101 kPa
Details | viscosity [mPa·s]
293.15 K, x1 = 0.6001 | 16.31
298.15 K, x1 = 0.7973 | 26.3
298.15 K, x1 = 0.9 | 34.2
303.15 K, x1 = 0.6001 | 12.31
303.15 K, x1 = 0.7973 | 22.35
308.15 K, x1 = 0.1999 | 1.86
308.15 K, x1 = 0.3999 | 5.26
308.15 K, x1 = 0.6001 | 10.84
308.15 K, x1 = 0.7973 | 19.21
308.15 K, x1 = 1 | 31.9
313.15 K, x1 = 0.1999 | 1.75
313.15 K, x1 = 0.7973 | 16.68
318.15 K, x1 = 0.3007 | 2.76
318.15 K, x1 = 0.3999 | 4.34
318.15 K, x1 = 0.9 | 18.34

NCCO + CN1CCCC1=O + CCCC[n+]1ccn(C)c1.O=S(=O)([N-]S(=O)(=O)C(F)(F)F)C(F)(F)F
viscosity [mPa·s], 101 kPa
Details | 293.15 K | 298.15 K | 303.15 K | 308.15 K | 313.15 K | 318.15 K | 323.15 K | 328.15 K | 333.15 K
x1 = 0.1608, x2 = 0.8154 | 3.357 | 3.042 | 2.776 | 2.553 | 2.364 | 2.204 | 2.068 | 1.95 | 1.848
x1 = 0.2089, x2 = 0.7256 | 4.749 | 4.206 | 3.761 | 3.388 | 3.089 | 2.818 | 2.599 | 2.41 | 2.252
x1 = 0.2436, x2 = 0.6371 | 6.416 | 5.617 | 4.959 | 4.413 | 3.958 | 3.575 | 3.254 | 2.982 | 2.752

CC1=CCC(C(C)C)=CC1 + CCCCCCCC[N+](CCCCCCCC)(CCCCCCCC)CCCCCCCC.[Br-] + [Cl-].[Cl-].[Co+2]
Details | viscosity [mPa·s]
296.1 K, 101.3 kPa, x2 = 0.4, x3 = 0.2 | 120000

CCCCCCCCOS(=O)(=O)[O-].CC[n+]1ccn(C)c1 + O + O=S(=O)([O-])[O-].[Na+].[Na+]
101 kPa, frequency 0.0005 MHz, x2 = 0.7732, x3 = 0.0003656
Details | electrical conductivity [S/m]
283.15 K | 0.483
285.15 K | 0.523
288.15 K | 0.59
291.15 K | 0.655
293.15 K | 0.699
298.15 K | 0.829
303.15 K | 0.977
313.15 K | 1.35
323.15 K | 1.68
333.15 K | 2.11
343.15 K | 2.63
353.15 K | 3.13
358.15 K | 3.41
363.15 K | 3.72

101 kPa, x2 = 0.7732, x3 = 0.0003656
Details | viscosity [mPa·s]
295.65 K | 86.6
298.15 K | 75.4
303.15 K | 58
308.15 K | 45.4
318.15 K | 29.06
328.15 K | 19.55
338.15 K | 13.72
